Measured values: ChEMBL document CHEMBL6114960, “Discovery of First-in-Class FXR and HSD17B13 Dual Modulator for the Treatment of Metabolic Dysfunction-Associated Fatty Liver Disease” (J Med Chem, 2025)

Columns and labels:
Assay type in all cases: cell-based
Bile acid receptor = molecular target: T1, Bile acid receptor (Homo sapiens, UniProt Q96RI1); assay: Agonist activity at FXR (unknown origin) transfected in human HepG2 cells incubated for 24 hrs by luciferase assay
T1 sequence (Q96RI1 whole entry): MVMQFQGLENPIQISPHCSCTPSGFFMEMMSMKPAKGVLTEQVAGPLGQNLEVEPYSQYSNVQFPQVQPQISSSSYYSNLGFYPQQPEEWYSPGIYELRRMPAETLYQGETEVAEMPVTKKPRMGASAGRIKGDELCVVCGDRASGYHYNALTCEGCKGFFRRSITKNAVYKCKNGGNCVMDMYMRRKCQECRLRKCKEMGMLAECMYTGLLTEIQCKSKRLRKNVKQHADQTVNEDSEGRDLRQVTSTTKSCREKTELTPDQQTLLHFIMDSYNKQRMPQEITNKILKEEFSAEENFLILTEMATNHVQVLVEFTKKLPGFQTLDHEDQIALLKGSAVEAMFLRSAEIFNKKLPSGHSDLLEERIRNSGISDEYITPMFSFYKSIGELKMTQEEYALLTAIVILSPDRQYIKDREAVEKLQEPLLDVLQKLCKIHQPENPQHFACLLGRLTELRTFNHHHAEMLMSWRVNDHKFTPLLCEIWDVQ

[1] = molecular target: T2, Retinoic acid receptor alpha (Homo sapiens, UniProt P10276); assay: Agonist activity at RARalpha (unknown origin) transfected in green monkey CV-1 cells co-transfected with NHR responsive luciferase reporter incubated for 18 hrs by luciferase assay
T2 sequence (P10276 whole entry): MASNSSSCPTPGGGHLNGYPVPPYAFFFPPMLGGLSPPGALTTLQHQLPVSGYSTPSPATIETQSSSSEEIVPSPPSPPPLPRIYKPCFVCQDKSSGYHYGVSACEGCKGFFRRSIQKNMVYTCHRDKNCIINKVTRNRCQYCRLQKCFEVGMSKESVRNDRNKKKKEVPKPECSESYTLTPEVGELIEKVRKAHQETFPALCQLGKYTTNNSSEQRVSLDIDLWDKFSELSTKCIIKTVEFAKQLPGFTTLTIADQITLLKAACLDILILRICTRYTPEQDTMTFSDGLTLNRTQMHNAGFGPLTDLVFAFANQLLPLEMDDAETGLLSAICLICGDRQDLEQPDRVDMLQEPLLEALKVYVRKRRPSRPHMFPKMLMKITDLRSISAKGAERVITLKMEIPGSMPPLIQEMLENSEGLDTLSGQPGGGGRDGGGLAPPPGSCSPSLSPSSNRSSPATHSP

[2] = molecular target: T3, Retinoic acid receptor gamma (Homo sapiens, UniProt P13631); assay: Agonist activity at RARgamma (unknown origin) transfected in green monkey CV-1 cells co-transfected with NHR responsive luciferase reporter incubated for 18 hrs by luciferase assay
T3 sequence (P13631 whole entry): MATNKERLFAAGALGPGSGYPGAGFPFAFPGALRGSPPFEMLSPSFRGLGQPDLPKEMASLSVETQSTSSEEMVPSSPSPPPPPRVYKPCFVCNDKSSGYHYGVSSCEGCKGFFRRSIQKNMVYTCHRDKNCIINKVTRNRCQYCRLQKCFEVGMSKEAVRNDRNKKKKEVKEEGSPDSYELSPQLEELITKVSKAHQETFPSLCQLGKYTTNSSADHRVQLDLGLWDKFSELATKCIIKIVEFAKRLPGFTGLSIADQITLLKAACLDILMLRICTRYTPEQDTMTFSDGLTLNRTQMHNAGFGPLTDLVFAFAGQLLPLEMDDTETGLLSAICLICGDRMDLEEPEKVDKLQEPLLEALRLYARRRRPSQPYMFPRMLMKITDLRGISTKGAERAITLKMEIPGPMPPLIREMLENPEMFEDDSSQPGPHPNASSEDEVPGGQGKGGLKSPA

Androgen receptor = molecular target: T4, Androgen receptor (Homo sapiens, UniProt P10275); assay: Agonist activity at androgen receptor (unknown origin) transfected in green monkey CV-1 cells co-transfected with NHR responsive luciferase reporter incubated for 18 hrs by luciferase assay
T4 sequence (P10275 whole entry): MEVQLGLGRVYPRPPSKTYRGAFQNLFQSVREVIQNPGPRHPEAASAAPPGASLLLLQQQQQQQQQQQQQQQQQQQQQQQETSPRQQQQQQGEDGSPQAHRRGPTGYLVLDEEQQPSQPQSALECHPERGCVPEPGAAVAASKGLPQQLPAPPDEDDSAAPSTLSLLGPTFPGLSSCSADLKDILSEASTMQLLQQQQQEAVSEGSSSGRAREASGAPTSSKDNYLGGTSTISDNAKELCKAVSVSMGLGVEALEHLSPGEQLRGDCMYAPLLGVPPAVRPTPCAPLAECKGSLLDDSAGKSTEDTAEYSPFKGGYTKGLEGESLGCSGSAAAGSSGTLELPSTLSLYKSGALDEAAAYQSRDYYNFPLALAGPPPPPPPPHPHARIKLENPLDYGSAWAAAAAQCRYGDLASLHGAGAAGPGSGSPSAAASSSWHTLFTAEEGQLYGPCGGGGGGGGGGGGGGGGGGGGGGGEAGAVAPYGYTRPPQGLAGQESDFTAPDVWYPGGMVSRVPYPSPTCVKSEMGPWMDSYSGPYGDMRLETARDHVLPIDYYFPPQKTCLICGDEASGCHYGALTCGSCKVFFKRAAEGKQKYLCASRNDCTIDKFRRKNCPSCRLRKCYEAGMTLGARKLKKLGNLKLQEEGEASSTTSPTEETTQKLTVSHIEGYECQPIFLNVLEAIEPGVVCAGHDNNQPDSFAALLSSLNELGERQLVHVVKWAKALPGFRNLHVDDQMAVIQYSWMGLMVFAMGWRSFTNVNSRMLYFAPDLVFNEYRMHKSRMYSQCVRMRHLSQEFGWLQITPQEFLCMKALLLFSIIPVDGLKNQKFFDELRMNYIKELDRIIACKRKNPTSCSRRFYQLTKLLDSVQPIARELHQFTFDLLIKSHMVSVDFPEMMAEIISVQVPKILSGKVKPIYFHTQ

EC50 (Bile acid receptor): 0.132 µM
EC50 [1]: > 10 µM
EC50 [2]: > 10 µM
EC50 (Androgen receptor): > 10 µM
Structure (SMILES): O=C(O)c1ccc(-c2ccc(OCc3c(-c4c(Cl)cccc4Cl)noc3C3CC3)cc2)cc1
